{
  "source": "patent US20030064426A1",
  "about": "“Reagents and methods for identifying and modulating expression of genes regulated by CDK inhibitors” (priority 2001, published 2003)",
  "key": {"[1]": {"tested_on": "mouse embryo fibroblast line C8", "test": "Apoptosis assay in serum-starved C8 cells", "format": "cell-based", "description": "(§1) To verify the induction of secreted mitogenic and anti-apoptotic factors by p21, conditioned media from IPTG-treated p21-9 cells were tested to investigate whether they would have an effect on cell growth and apoptosis. In these experiments, conditioned media were prepared by plating 10^6 p21-9 cells per 15 cm plate in the presence of DMEM/10% FCS. The next day, IPTG was added to a final concentration of 50 μM, and this media was replaced three days later with DMEM supplemented with 0.5% FCS and 50 μM IPTG. Two days later (days 3-5 of IPTG treatment), this conditioned media was collected and stored at 4° C. up to 15 days before use. Control media were prepared by adding IPTG-free DMEM/0.5% FCS to untreated cells grown to the same density as IPTG-treated cells and collecting the media two days thereafter.\nThe effect of this conditioned media on apoptosis was also determined. These experiments used a mouse embryo fibroblast line C8, immortalized by E1A. […] Apoptosis was analyzed by plating 3×10^5 C8 cells per 6-cm plate, and replacing the media on the following day with fresh media supplemented with 0.4% serum or with conditioned media (no fresh serum added). DNA content analysis and DAPI staining were carried out after 24 hrs and 48 hrs, and relative cell numbers were measured by methylene blue staining (Perry et al., 1992, Mutat. Res. 276: 189-197) after 48 hrs in low-serum media."}, "[2]": {"tested_on": "human fibrosarcoma cell line HS 15.T", "test": "Mitogenic activity assay, 3H-thymidine incorporation", "format": "cell-based", "conditions": "HS 15.T cells", "description": "as §1\nThe slow-growing human fibrosarcoma cell line HS 15.T was used to detect mitogenic activity in these conditioned media. For mitogenic activity assays, both types of conditioned media, as well as fresh media and 1:1 mixtures of conditioned media and fresh media were used to test mitogenic activity. In these experiments, the conditioned media were supplemented with 1% or 2% FCS. […] Cells were then collected and their ^3H-thymidine incorporation determined as described by Mosca et al. (1992, Mol. Cell. Biol. 12: 4375-4383)."}, "[3]": {"tested_on": "NFκB transcriptional activity (pNFkB-Luc) in HT1080 p21-9 cells", "test": "Transient transfection assay with pNFkB-Luc in HT1080 p21-9 cells", "format": "cell-based, human", "conditions": "50 μM IPTG three days; pNFkB-Luc mixed with negative control E1AΔN/C", "description": "Plasmid clones for each promoter construct were tested for p21-regulation by a transient transfection assay. Transient transfection of HT1080 p21-9 cells was carried out by electroporation, essentially as described in the Bio-Rad protocols. For each electroporation, p21-9 cells were grown to confluence in 15 cm plates using DMEM supplemented with 10% FC2 serum and containing penicillin, streptomycin and glutamine.. The cells were then trypsinized, resuspended in Opti-MEM medium (GibcoBRL) and spun down at 1,000 rpm in an IEC HN-SII centrifuge for 10 minutes. Following centrifugation the media were aspirated and the cells were again resuspended in Opti-MEM at a concentration of 18-20 million cells per ml. […] In preliminary experiments, cell survival and attachment after electroporation was determined to be approximately 33%. […] Luciferase activity was measured using a Turner 20/20 luminometer at 52.1% sensitivity with a 5 second delay period and 10-15 second integration time.\nTo determine if IPTG-inducible p21 expression in HT 1080 p21-9 cells stimulates the transcriptional activity of NFκB, we have used transient transfection assays to investigate the effect of p21 induction on luciferase expression from the plasmid pNFkB-Luc, commercially available from Stratagene. […] The luciferase activity was measured and normalized to protein content in each sample."}, "[4]": {"tested_on": "induction of luciferase expression by p21 from the NK4 promoter in LuNK4p21 cells", "test": "Luciferase assay in LuNK4p21 cell line (NK4 promoter-luciferase, IPTG-inducible p21)", "format": "cell-based, human", "conditions": "for induction of luciferase expression by IPTG in the presence of NSAID: 20 hr treatment after 16 hrs with 50 μM IPTG", "description": "To develop a stably transfected cell line with p21-regulated luciferase expression, the NK4 promoter-luciferase construct, described in Example 8 and termed pLuNK4, was introduced into HT1080 p21-9 cells, which carry IPTG-inducible p21, by cotransfection with pBabePuro carrying puromycin N-acetyltransferase as a selectable marker. Transfection was carried out using LIPOFECTAMTNE 2000 (Life Technologies, Inc., Gaithersburg, Md.), using a 10:1 ratio of pLuNK4 and pBabePuro. Stable transfectants were selected using 1 μg/mL puromycin for 5 days.\nThis assay was performed as follows. Cells were plated at a density of 40,000 cells/well in 12 well plates in 1 mL of media containing penicillin/streptomycin, glutamine and 10% fetal calf serum (FCS). After attachment, cells were treated with 50 μM IPTG or left untreated for different periods of time. Luciferase activity was then measured as described in Example 8 above. An additional aliquot was removed from the cell lysate to measure protein concentration using the Bio-Rad protein assay kit (Bradford assay). Luciferase activity for each sample was normalized to protein content and expressed as luciferase activity/μg protein.\nLuciferase assays were performed substantially as described in Example 9. Luciferase activity was measured after 16 hrs of incubation with or without 50 μM IPTG, followed by an additional 20 hr treatment in the presence or in the absence of 20 mM sodium salicylate, 1 mM sulindac, or 10 mM aspirin. […] NSAID concentrations were based on the pharmacologic concentrations of these agents in the serum of patients required for their anti-inflammatory properties (Yin et al., 1998, ibid.)."}, "[5]": {"tested_on": "RNA expression of the endogenous p21-inducible genes in LuNK4p21 cells", "test": "RT-PCR of endogenous p21-inducible genes in LuNK4p21 cells", "format": "cell-based, human", "description": "To determine whether NFκB-inhibiting NSAID inhibited not only the induction of transcription from the NK4 promoter but also RNA expression of the endogenous p21-inducible genes, LuNK4p21 cells were plated at 125,000 cells per well in 6-well plates and were either untreated or treated with 50 μM IPTG for 48 hrs (the period of time required for maximal stimulation of p21 -inducible genes; Chang et al., 2000, Proc. Natl. Acad. Sci. USA 97: 4291-4296), in the presence or in the absence of sulindac, at 250 μM, 500 μM or 1 mM concentrations. After this incubation, RNA was extracted from the cells using Qiagen RNeasy Mini Kit, and relative RNA levels of several p21-inducible genes were determined by reverse transcription-PCR (RT-PCR), essentially as described by Noonan et al. (1990, Proc. Natl. Acad. Sci. USA 87: 7160-7164), except that β-actin rather than β2-microglobulin was used for cDNA normalization. The PCR cycles were as follows: for the 1st cycle, 3 min for denaturation, 2 min for annealing and 2 min for extension, and the rest of cycles, 30 sec for denaturation; 30 sec for annealing; and 1 min for extension."}, "[6]": {"conditions": "sulindac 250 μM, 500 μM or 1 mM"}},
  "data": [
    {"smiles": "CC(C)S[C@@H]1O[C@H](CO)[C@H](O)[C@H](O)[C@H]1O", "note": "[IPTG, isopropyl-β-thiogalactoside]", "values": [
      {"measurement": "effect of IPTG by itself on apoptosis", "setting": "[1]", "value": "no effect"},
      {"measurement": "effect of the addition of IPTG to fresh media on 3H-thymidine incorporation", "setting": "[2]", "value": "no effect"},
      {"measurement": "induction of pNFkB-Luc luciferase in the presence of IPTG", "setting": "[3]", "value": "up to 15 fold"},
      {"measurement": "increase of luciferase expression by IPTG", "setting": "[4]; 50 μM IPTG, absence of NSAID", "value": "3-4 fold"},
      {"measurement": "increase in luciferase levels in IPTG-treated cells", "setting": "[4]; LuNK4p21 cell line, about 17 hrs", "value": "approximately 3 fold"}
    ]},
    {"smiles": "CC(=O)Oc1ccccc1C(=O)O", "note": "[aspirin]", "values": [
      {"measurement": "induction of luciferase expression by IPTG in the presence of NSAID", "setting": "[4]; 10 mM aspirin", "value": "completely or almost completely abolished"}
    ]},
    {"smiles": "CC(C)Cc1ccc(C(C)C(=O)O)cc1", "note": "(stereo not shown) [ibuprofen]", "values": [
      {"measurement": "induction of luciferase expression by IPTG in the presence of NSAID", "setting": "[4]; 25 μM", "value": "no significant difference"}
    ]},
    {"smiles": "COc1ccc2c(c1)c(CC(=O)O)c(C)n2C(=O)c1ccc(Cl)cc1", "note": "[indomethacin]", "values": [
      {"measurement": "induction of luciferase expression by IPTG in the presence of NSAID", "setting": "[4]; 25 μM", "value": "no significant difference"}
    ]},
    {"smiles": "O=C([O-])c1ccccc1O.[Na+]", "note": "[salicylate, sodium salicylate]", "values": [
      {"measurement": "induction of luciferase expression by IPTG in the presence of NSAID", "setting": "[4]; 20 mM sodium salicylate", "value": "completely or almost completely abolished"}
    ]},
    {"smiles": "CC1=C(CC(=O)O)c2cc(F)ccc2/C1=C\\c1ccc([S+](C)[O-])cc1", "note": "(stereo not shown) [sulindac]", "values": [
      {"measurement": "effects of IPTG on the APP gene (RT-PCR)", "setting": "[5]; 250 and 500 μM sulindac", "value": "diminished"},
      {"measurement": "gene expression of all the other tested genes (RT-PCR)", "setting": "[5]; absence of IPTG, sulindac 250 μM, 500 μM or 1 mM", "value": "dose-dependent increase"},
      {"measurement": "NK4 gene expression (RT-PCR)", "setting": "[5]; absence of IPTG, sulindac 250 μM, 500 μM or 1 mM, 48 hrs", "value": "very little effect"},
      {"measurement": "ability of p21 to induce transcription for most of the tested genes", "setting": "[5]; moderate dose of sulindac (250 μM)", "value": "inhibits"},
      {"measurement": "effects of IPTG on the CTGF gene (RT-PCR)", "setting": "[5]; only by 250 μM sulindac", "value": "diminished"},
      {"measurement": "effects of IPTG on the Mac2-binding protein (Mac2-BP) gene (RT-PCR)", "setting": "[5]; only by 250 μM sulindac", "value": "diminished"},
      {"measurement": "effects of IPTG on the p66Shc gene (RT-PCR)", "setting": "[5]; only by 250 μM sulindac", "value": "diminished"},
      {"measurement": "NK4 RNA levels (RT-PCR)", "setting": "[5]; presence of 50 μM IPTG, sulindac 250 μM, 500 μM or 1 mM, 48 hrs", "value": "dose-dependent decrease"},
      {"measurement": "gene expression of the other tested genes (RT-PCR)", "setting": "[5]; presence of IPTG, highest tested dose of sulindac (1 mM)", "value": "did not decrease"},
      {"measurement": "IPTG-induced RNA levels of prosaposin (RT-PCR)", "setting": "[5]; [6]", "value": "None of the tested sulindac concentrations produced a significant decrease"},
      {"measurement": "IPTG-induced RNA levels of superoxide dismutase 2 (SOD2) (RT-PCR)", "setting": "[5]; [6]", "value": "None of the tested sulindac concentrations produced a significant decrease"},
      {"measurement": "t-TGase RNA (RT-PCR), compared with NK4", "setting": "[5]; with and without 50 μM IPTG, sulindac 250 μM, 500 μM or 1 mM, 48 hrs", "value": "Very similar results"},
      {"measurement": "induction of luciferase expression by IPTG in the presence of NSAID", "setting": "[4]; 1 mM sulindac", "value": "completely or almost completely abolished"}
    ]}
  ]
}
